Assay results as given in patent US9255085B2, “Carboxamide compounds and methods for using the same” (Rigel Pharmaceuticals, Inc., priority 2008, dated 2016).

Target: AMPK
Test: AMPK activation, enzyme-linked immunosorbent assay
Type: biochemical
Conditions: ELISA
Method: Compounds 1-13 were assayed for their ability to activate AMPK using an enzyme-linked immunosorbent assay.
Compounds 14-16 were assayed for their ability to activate AMPK using an enzyme-linked immunosorbent assay.
Compounds 17-18 were assayed for their ability to activate AMPK using an enzyme-linked immunosorbent assay.
Compounds 19-22 were assayed for their ability to activate AMPK using an enzyme-linked immunosorbent assay.
Compounds 23-26 were assayed for their ability to activate AMPK using an enzyme-linked immunosorbent assay.
Compounds 27-33 were assayed for their ability to activate AMPK using an enzyme-linked immunosorbent assay.
Compounds 34-42 were assayed for their ability to activate AMPK using an enzyme-linked immunosorbent assay.

EC50 (Table 7) [nM]	EC50 (Table 8) [nM]	Compound
10000 to 100000	–	N#Cc1ccc(CN2CCC(NC(=O)c3ccc(C(=O)NC4CCN(Cc5ccccc5)CC4)cc3)CC2)cc1 [Compound 33, N^1-(1-Benzylpiperidin-4-yl)-N^4-(1-(4-cyanobenzyl)piperidin-4-yl)terephthalamide]
–	< 100	N#Cc1ccc(CN2CCC(NC(=O)c3ccc4c(c3)CN(Cc3ccc(C#N)cc3)CC4)CC2)cc1 [Compound 37, 2-(4-cyanobenzyl)-N-(1-(4-cyanobenzyl)piperidin-4-yl)-1,2,3,4-tetrahydroisoquinoline-7-carboxamide]
–	< 100	N#Cc1ccc(CN2CCc3ccc(C(=O)NC4CCN(Cc5cccnc5)CC4)cc3C2)cc1 [Compound 38, 2-(4-Cyanobenzyl)-N-(1-(pyridin-3-ylmethyl)piperidin-4-yl)-1,2,3,4-tetrahydroisoquinoline-7-carboxamide]
–	1000 to 10000	N#Cc1ccc(CN2CCc3ccc(C(=O)NC4CCN(Cc5ccc(C(F)(F)F)cc5)CC4)cc3C2)cc1 [Compound 39, 2-(4-Cyanobenzyl)-N-(1-(4-(trifluoromethyl)benzyl)piperidin-4-yl)-1,2,3,4-tetrahydroisoquinoline-7-carboxamide]
–	< 100	N#Cc1ccc(CN2CCC(NC(=O)c3ccc4c(c3)CN(Cc3ccc(F)cc3)CC4)CC2)cc1 [Compound 40, N-(1-(4-cyanobenzyl)piperidin-4-yl)-2-(4-fluorobenzyl)-1,2,3,4-tetrahydroisoquinoline-7-carboxamide]
–	1000 to 10000	O=C(NC1CCN(Cc2cccnc2)CC1)c1ccc2c(c1)CN(Cc1ccc(F)cc1)CC2 [Compound 41, 2-(4-Fluorobenzyl)-N-(1-(pyridine-3-ylmethyl)piperidin-4-yl)-1,2,3,4-tetrahydroisoquinoline-7-carboxamide]
–	100 to 1000	O=C(NC1CCN(Cc2ccc(C(F)(F)F)cc2)CC1)c1ccc2c(c1)CN(Cc1ccc(F)cc1)CC2 [Compound 42, 2-(4-Fluorobenzyl)-N-(1-(4-(trifluoromethyl)benzyl)piperidin-4-yl)-1,2,3,4-tetrahydroisoquinoline-7-carboxamide]
